# Reference: patent publication US4623535A, “Leukotriene antagonists” (SmithKline Beckman Corporation, priority 1984, dated 1986)
# Molecular target: T1, leukotriene D4 (LTD4) induced contraction of guinea pig tracheal spiral strips (Cavia porcellus, UniProt Q2NNR5)
# T1 construct: Guinea pig (adult male albino Hartley strain) tracheal spiral strips; from tissue; host or cells: guinea pig trachea (spiral strips, adult male albino Hartley strain)
# T1 sequence (Q2NNR5 1-340): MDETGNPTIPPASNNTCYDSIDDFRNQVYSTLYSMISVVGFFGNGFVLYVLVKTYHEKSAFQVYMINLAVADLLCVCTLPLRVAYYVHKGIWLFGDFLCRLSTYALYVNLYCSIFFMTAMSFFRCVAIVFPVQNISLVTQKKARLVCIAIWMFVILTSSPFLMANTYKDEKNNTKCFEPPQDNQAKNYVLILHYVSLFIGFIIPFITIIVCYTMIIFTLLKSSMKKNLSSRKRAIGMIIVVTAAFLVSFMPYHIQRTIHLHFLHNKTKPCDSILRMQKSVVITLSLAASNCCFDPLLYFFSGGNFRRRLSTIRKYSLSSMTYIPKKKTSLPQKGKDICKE
# Assay: Inhibition of leukotriene (LTD4) induced contraction of guinea pig tracheal tissues in vitro
# Assay type: cell-based, guinea pig (adult male albino Hartley strain)
# Settings: LTD4 agonist, 30 min pretreatment with test compound, meclofenamic acid 1 μM, EC30 relative to carbachol (10 μM), read-out: In Vitro -Log KB (converted)
# Protocol: The leukotriene antagonist activity of the compounds of this invention is measured by the ability of the compounds to inhibit the leukotriene induced contraction of guinea pig tracheal tissues in vitro. The following methodology was employed:
# In vitro: Guinea pig (adult male albino Hartley strain) tracheal spiral strips of approximate dimensions 2 to 3 mm cross-sectional with and 3.5 cm length were bathed in modified Krebs buffer in jacketed 10 ml tissue bath and continuously aerated with 95% O2 /5% CO2. The tissues were connected via silk suture to force displacement transducers for recording isometric tension. The tissues were equilibrated for 1 hr., pretreated for 15 minutes with meclofenamic acid (1 μM) to remove intrinsic prostaglandin responses, and then pretreated for an additional 30 minutes with either the test compound or vehicle control. A cumulative concentration-response curve for LTD4 on triplicate tissues was generated by successive increases in the bath concentration of the LTD4. In order to minimize intertissue variability, the contractions elicited by LTD4 were standardized as a percentage of the maximum response obtained to a reference agonist, carbachol (10 μM).
# Calculations: The averages of the triplicate LTD4 concentration-response curves both in the presence and absence of the test compound were plotted on log graph paper. The concentration of LTD4 needed to elicit 30% of the contraction elicited by carbachol was measured and defined as the EC30. The -log KB value for the test compound was determined by the following equations: [formula]
# The antagonist activity of representative compounds of this invention is tabulated below. The -log KB values were calculated from the above test protocol.
row,Kb,Compound
1,10 µM,"CCCCCCCCC#CC(SCCC(=O)O)SCCC(=O)O [R1 = C8 H17, m = 2, n = 2, 4,6-Dithia-5-(1-decynyl)-nonanedioic acid]"
2,0.794 µM,"CCCCCCCCCCC#CC(SCCC(=O)O)SCCC(=O)O [R1 = C10 H21, m = 2, n = 2, 4,6-dithia-5-(1-dodecynyl)-nonanedioic acid]"

# The remaining lines, values behind:
row,Compound,Kb
1,"CCCCCCCCCCC#CC(SCCCC(=O)O)SCCCC(=O)O [R1 = C10 H21, m = 3, n = 3, 5,7-dithia-6-(1-dodecynyl)-undecanedioic acid]",3.16 µM
2,"CCCCCCCCCCC#CC(SCC(=O)O)SCC(=O)O [R1 = C10 H21, m = 1, n = 1, 3,5-dithia-4-(1-dodecynyl)-heptanedioic acid]",5.01 µM
3,"CCCCCCCCCCCCC#CC(SCCC(=O)O)SCCC(=O)O [R1 = C12 H25, m = 2, n = 2, 4,6-dithia-5-(1-tetradecynyl)-nonanedioic acid]",2 µM
